Test results published in patent US20110070329A1, “1-tert-Butylcyclohexanecarboxamide and uses thereof as cooling compounds” (priority 2009, published 2011).
“Also recorded” adds a separate entry of the source.

Tests used:
[1] = Flavor evaluation, tasted in water at 10 ppm
Description: After expectorating, cooling began to build over time. The residual cooling (approx. five minutes) after expectorating earned a rating of 4 while when the cooler was in mouth, it was rated a 1 (on a scale of 1 to 9) when tasted in water at 10 ppm.

[2] = Evaluation of cooler mixed with fondant
Description: In this example, Structure III was mixed with a fondant, commercially available from Confectionary House, Troy, N.Y., at levels listed in Table 1.

[3] = Chewing gum evaluation by trained descriptive analysis panel; details: level 0.20%
Description: The following gum base formulation was prepared: […]
Structure III by itself at levels detailed in the Table III was blended with the gum base in a Sigma mixer. The resultant chewing gum blend was then manufactured into strips 1 inch in width and 0.1 inches in thickness. These strips were cut into lengths of 3 inches each.
Samples were profiled by a highly trained descriptive analysis panel. The ballot consisted of the following terms: Total impact, total mint, cooling-mouth closed, cooling—breath in, nasal cooling—breathe in, throat irritation, bitterness, tongue irritation, numbing. Each attribute was rated at discrete time points including 1 minute, 3 minutes, 5 minutes, 10 minutes, 20 minutes, and 30 minutes.

SMILES	flavor properties when tasted in water [1]	residual cooling rating after expectorating ([1]; approx. five minutes after expectorating, scale of 1 to 9)	cooling rating when the cooler was in mouth ([1]; in mouth, scale of 1 to 9)	COMMENTS (cooling evaluation in fondant) ([2]; 50 ppm)	COMMENTS (cooling evaluation in fondant) ([2]; 100 ppm)	Time and Evaluation (chewing gum) ([3]; 0-1 minute)	Time and Evaluation (chewing gum) ([3]; 1-3 minutes)	Time and Evaluation (chewing gum) ([3]; 3-5 minutes)	Time and Evaluation (chewing gum) ([3]; 5-10 minutes)	Time and Evaluation (chewing gum) ([3]; 10-20 minutes)	Time and Evaluation (chewing gum) ([3]; 20-30 minutes)
CC(C)(C)C1(C(=O)Nc2ccc(CC#N)cc2)CCCCC1 [Structure I, 1-tert-butyl-N-[4-(cyanomethyl)phenyl]cyclohexanecarboxamide]	bitter upfront, intense cooling upon expectorating										
CC(C)(C)C1(C(=O)NCCc2ccccn2)CCCCC1 [Structure II, 1-tert-butyl-N-[2-(pyridine-2-yl)ethyl]cyclohexanecarboxamide]	honey, cream soda, slightly bitter, cooling flavor properties after about thirty seconds										
CC(C)(C)C1(C(=O)NCc2ccccn2)CCCCC1 [Structure III, 1-tert-butyl-N-[(pyridine-2-yl)methyl]cyclohexanecarboxamide]	did not have much cooling except on breath-in. After expectorating, cooling began to build over time	4	1	Slight cooling but quick onset, fills mouth	Quick onset slight bitterness perceived	Sweet, citrus. Not cooling slightly bitter	Cooling is perceivable, but weak.	bitterness., cooling very weak; also recorded: More cooling. Cooling when breathing. Little	Cooling is all over the mouth. Some bitterness; also recorded: is perceivable, very slight cooling again very; also recorded: weak	Cooling is all over the mouth but not very; also recorded: intensive., little to no cooling	More bitterness is perceivable. Cooling is; also recorded: moderate and slowly starting to decline; also recorded: little to no cooling
